# System: HGC27 (Human Gastric Cancer Cell)
# Test: HGC27 cell growth inhibition (CellTiter-Glo)
# Type: cell-based
# Details: HGC27 cells, 24 hours, CellTiter-Glo; read-out: HGC27 CTG IC50
# Procedure: Biological Activity Detection of HGC27 (Human Gastric Cancer Cell) Cell Growth Inhibition
# This detection method is used to evaluate the cellular level biological activity of the compounds of the present disclosure.
# Harvest HGC27 cells (purchased from Chinese Academy of Sciences), resuspend in complete culture medium and adjust the cell density to 0.2×10^6 cells per ml. Add 100 μL of cell suspension to each well into a 96-well plate and incubate overnight in a 37° C., 5% CO2 incubator. Prepare the compound to be tested and add it to the cell plate so that the maximum concentration of the compound is 10 μM. Set 8 concentration points according to 3-fold dilution. At the same time, set up a 100% inhibition control well, that is, a well with no cells added and only an equal volume of complete culture medium; and a 0% inhibition control well, that is, a cell well with 0.1% DMSO added. The above cell plate was cultured at 37° C. and 5% CO2 for 24 hours. Take out the cell culture plate, add 25 μl CellTiter-Glo® Luminescent Cell Viability reagent (promega cat #G7573) to each well, incubate in the dark for 10 minutes, transfer 100 μL to a white plate, and use Molecular Devices SpectraMax i3 to detect chemiluminescence. Data processing uses the following formula to calculate the inhibition rate: compound inhibition rate=(0% inhibition of control well signal−compound treatment well signal)/(0% inhibition of control well signal−100% inhibition of control well signal)*100%. The calculated data were fitted using graphpad prism software with four parameters and the corresponding IC50 was calculated.
# According to the above detection method, the biological activity of the compound of the present disclosure was evaluated at the cellular level. Wherein, CR8 is a literature compound, which was purchased from Shanghai Bide Pharmaceutical.
row,IC50,Compound
1,202 nM,O[C@@H]1CCC[C@H]1Nc1nc(NCc2ccc(-c3ccccn3)cc2)ncc1C(F)(F)F [Compound 152]

# Same assay, conditions: Homo sapiens, HGC-27, 24 h, HGC27 cells, 24 hours, CellTiter-Glo; read-out: HGC27 CTG IC50
row,Compound,IC50
1,CC[C@@H](Nc1nc(NCc2ccc(-c3ccccn3)cc2)ncc1C(F)(F)F)[C@@H](C)O [Compound 195],25 nM
2,O[C@@H]1CCC[C@H]1Nc1nc(NCc2ccc(-c3ccccn3)cc2)ncc1C(F)(F)F [Compound 70],160 nM
3,Cc1cc(CO)cc(-c2ccc(CNc3ncc(C(F)(F)F)c(OC4COC4)n3)cc2)n1 [Compound 64],251 nM
4,CC[C@H](CO)Nc1nc(NCc2ccc(-c3ccccn3)cc2)ncc1C(F)(F)F [Compound 25],158 nM
5,OCc1ccnc(-c2ccc(CNc3ncc(C(F)(F)F)c(OC4COC4)n3)cc2)c1 [Compound 43],266 nM
6,CC[C@@H](Nc1nc(NCc2ccc(-c3cc(C)cc(CO)n3)cc2)ncc1C(F)(F)F)C(N)=O [Compound 163],393 nM
7,OCC(CO)Nc1nc(NCc2ccc(-c3ccccn3)cc2)ncc1C(F)(F)F [Compound 104],275 nM
8,CC[C@H](CN)Nc1nc(NCc2ccc(-c3ccccn3)cc2)ncc1C(F)(F)F [Compound 214],292 nM
9,C[C@@H](O)[C@@H](CO)Nc1nc(NCc2ccc(-c3cc(CO)cc(CO)n3)cc2)ncc1C(F)(F)F [Compound 170],48 nM
10,O[C@H]1CCCC[C@H]1Nc1nc(NCc2ccc(-c3ccccn3)cc2)ncc1C(F)(F)F [Compound 156],169 nM
11,Cc1cc(CO)nc(-c2ccc(CNc3ncc(C(F)(F)F)c(OC4COC4)n3)cc2)c1 [Compound 69],185 nM
12,C[C@@H](Nc1nc(NCc2ccc(-c3ccccn3)cc2)ncc1C(F)(F)F)C(=O)N(C)C [Compound 192],25 nM
13,NC(=O)[C@@H](CO)Nc1nc(NCc2ccc(-c3ccccn3)cc2)ncc1C(F)(F)F [Compound 127],446 nM
14,C[C@@H](O)[C@@H](CN1CCCC1)Nc1nc(NCc2ccc(-c3ccccn3)cc2)ncc1C(F)(F)F [Compound 202],367 nM
15,C[C@H](CO)Oc1nc(NCc2ccc(-c3ccccn3)cc2)ncc1C(F)(F)F [Compound 165],89 nM
16,CN1CCC(Oc2nc(NCc3ccc(-c4ccccn4)cc3)ncc2C(F)(F)F)CC1 [Compound 35],379 nM
17,Cc1ccnc(-c2ccc(CNc3ncc(C(F)(F)F)c(OC4COC4)n3)cc2)c1 [Compound 40],341 nM
18,CNC(=O)[C@@H](C)Nc1nc(NCc2ccc(-c3ccccn3)cc2)ncc1C(F)(F)F [Compound 193],39 nM

row,Compound,IC50
1,C[C@@H](Oc1nc(NCc2ccc(-c3ccccn3)cc2)ncc1C(F)(F)F)C(N)=O [Compound 166],24 nM
2,C[C@@H](O)[C@@H](C)Oc1nc(NCc2ccc(-c3cc(CO)cc(CO)n3)cc2)ncc1C(F)(F)F [Compound 168],60 nM
3,NS(=O)(=O)c1cncc(-c2nc(NCc3ccc(-c4ccccn4)cc3)ncc2C(F)(F)F)c1 [Compound 147],410 nM
4,O[C@H]1CC[C@H]1Nc1nc(NCc2ccc(-c3ccccn3)cc2)ncc1C(F)(F)F [Compound 91],486 nM
5,N#Cc1cc(CO)nc(-c2ccc(CNc3ncc(C(F)(F)F)c(OC4COC4)n3)cc2)c1 [Compound 179],108 nM
6,CC(C)(C)[C@H](CO)Nc1nc(NCc2ccc(-c3ccccn3)cc2)ncc1C(F)(F)F [Compound 85],405 nM
7,C[C@@H](O)[C@@H](CO)Nc1nc(NCc2ccc(-c3cc(CO)cc(CO)n3)cc2)ncc1C#N [Compound 175],406 nM
8,NC(=O)[C@H](Nc1nc(NCc2ccc(-c3ccccn3)cc2)ncc1C(F)(F)F)C1CC1 [Compound 206],65 nM
9,O[C@H]1COC[C@H]1Oc1nc(NCc2ccc(-c3ccccn3)cc2)ncc1C(F)(F)F [Compound 151],197 nM
10,C=Cc1ccnc(-c2ccc(CNc3ncc(C(F)(F)F)c(OC4COC4)n3)cc2)c1 [Compound 129],77 nM
11,CC[C@@H](Nc1nc(NCc2ccc(-c3cc(CO)cc(CO)n3)cc2)ncc1C(F)(F)F)C(N)=O [Compound 169],53 nM
12,CC[C@H](CO)Oc1nc(NCc2ccc(-c3ccccn3)cc2)ncc1C(F)(F)F [Compound 149],238 nM
13,CC[C@@H](Nc1nc(NCc2ccc(-c3cc(CO)cc(CO)n3)cn2)ncc1C(F)(F)F)C(N)=O [Compound 176],171 nM
14,C[C@@H](Nc1nc(NCc2ccc(-c3ccccn3)cc2)ncc1C(F)(F)F)C(N)=O [Compound 188],258 nM
15,CS(=O)(=O)c1cccc(-c2nc(NCc3ccc(-c4ccccn4)cc3)ncc2C(F)(F)F)c1 [Compound 146],281 nM
16,CC[C@@H](Nc1nc(NCc2ccc(-c3ccccn3)cc2)ncc1C(F)(F)F)C(N)=O [Compound 134],370 nM
17,C[C@@H](O)[C@@H](CO)Nc1nc(NCc2ccc(-c3ccccn3)cc2)ncc1C(F)(F)F [Compound 126],170 nM

# Further lines, results first:
row,IC50,Compound
1,479 nM,C[C@@H](Nc1ncc(C(F)(F)F)c(OC2COC2)n1)c1ccc(-c2ccccn2)cc1 [Compound 119]
2,439 nM,CC[C@@H](Nc1nc(NCc2ccc(-c3cc(CO)cc(CO)n3)cc2)ncc1C(F)(F)F)[C@@H](C)O [Compound 198]
3,429 nM,"CC[C@H](CO)Nc1nc(NCc2ccc(-c3ccccn3)cc2)c2ncn(C(C)C)c2n1 [CR8, reference compound]"
4,427 nM,CCc1ccnc(-c2ccc(CNc3ncc(C(F)(F)F)c(OC4COC4)n3)cc2)c1 [Compound 135]
5,386 nM,O[C@H]1CNCC1Oc1nc(NCc2ccc(-c3ccccn3)cc2)ncc1C(F)(F)F (some centres unmarked) [Compound 164]
6,278 nM,C[C@@H](O)[C@@H](C)Nc1nc(NCc2ccc(-c3cc(CO)cc(CO)n3)cc2)ncc1C(F)(F)F [Compound 194]
7,254 nM,N#Cc1ccnc(-c2ccc(CNc3ncc(C(F)(F)F)c(OC4COC4)n3)cc2)c1 [Compound 138]
8,251 nM,COc1ccnc(-c2ccc(CNc3ncc(C(F)(F)F)c(OC4COC4)n3)cc2)c1 [Compound 114]
9,205 nM,CC[C@H](O)[C@@H](C)Nc1nc(NCc2ccc(-c3ccccn3)cc2)ncc1C(F)(F)F [Compound 199]
10,193 nM,CC[C@@H](Nc1nc(NCc2ccc(-c3cc(CO)cc(C)n3)cc2)ncc1C(F)(F)F)C(N)=O [Compound 161]
11,193 nM,C[C@@H](O)[C@@H](CO)Nc1nc(NCc2ccc(-c3cc(CO)cc(CO)n3)cn2)ncc1C(F)(F)F [Compound 177]
12,191 nM,OCc1cc(CO)nc(-c2ccc(CNc3ncc(C(F)(F)F)c(OC4COC4)n3)cc2)c1 [Compound 125]
13,110 nM,NC(=O)[C@H](Nc1nc(NCc2ccc(-c3ccccn3)cc2)ncc1C(F)(F)F)C1CCC1 [Compound 211]
14,100 nM,C[C@@H](O)[C@@H](C)Oc1nc(NCc2ccc(-c3ccccn3)cc2)ncc1C(F)(F)F [Compound 131]
15,68 nM,C[C@@H](O)[C@@H](C)Oc1nc(NCc2ccc(-c3cc(CO)cc(CO)n3)cn2)ncc1C(F)(F)F [Compound 182]
16,63 nM,C[C@@H](Nc1ncc(C(F)(F)F)c(OC2COC2)n1)c1ccc(-c2cc(CO)cc(CO)n2)cc1 [Compound 181]
17,49 nM,COC[C@H](CO)Nc1nc(NCc2ccc(-c3ccccn3)cc2)ncc1C(F)(F)F [Compound 158]
18,49 nM,C[C@@H](Oc1nc(NCc2ccc(-c3ccccn3)cc2)ncc1C(F)(F)F)C(C)(C)O [Compound 167]
19,48 nM,Cc1cc(CO)cc(-c2ccc(CNc3ncc(C(F)(F)F)c(N[C@H](CO)[C@@H](C)O)n3)cc2)n1 [Compound 160]
20,45 nM,OC[C@H](Nc1nc(NCc2ccc(-c3ccccn3)cc2)ncc1C(F)(F)F)C1CC1 [Compound 159]
21,34 nM,CC(C)[C@@H](Nc1nc(NCc2ccc(-c3ccccn3)cc2)ncc1C(F)(F)F)C(N)=O [Compound 210]
22,25 nM,C[C@@H](O)[C@@H](CO)Nc1nc(NCc2ccc(-c3cccc(CO)n3)cc2)ncc1C(F)(F)F [Compound 171]

# Same assay, conditions: Homo sapiens, HGC-27, 24 h, read-out: HGC27 CTG IC50
row,Compound,IC50
1,C[C@@H](O)[C@H](Nc1nc(NCc2ccc(-c3ccccn3)cc2)ncc1C(F)(F)F)C(N)=O [Compound 207],103 nM
2,C[C@@H](O)[C@@H](Nc1nc(NCc2ccc(-c3ccccn3)cc2)ncc1C(F)(F)F)C(N)=O [Compound 213],123 nM
3,C[C@H](O)[C@@H](Nc1nc(NCc2ccc(-c3ccccn3)cc2)ncc1C(F)(F)F)C(N)=O [Compound 212],187 nM
4,FC(F)(F)c1cnc(NCc2ccc(-c3cnccn3)cc2)nc1OC1COC1 [Compound 21],155 nM

# Reference: patent US20240368147A1, “CYCLIN K DEGRADER” (ADLAI NORTYE BIOPHARMA CO., LTD., priority 2021, published 2024)
